From patent US12161115B2, “Herbicidal compounds” (SYNGENTA CROP PROTECTION AG, priority 2019, dated 2024)

Columns and labels:
Format in all cases: in vivo
[1] = system: Alopecurus myosuroides (ALOMY); experiment: Pre-emergence herbicidal glasshouse test; details: 250 g/Ha, evaluated after 13 days
Method: (§1) Seeds of a variety of test species are sown in standard soil in pots (Lolium perenne (LOLPE), Setaria faberi (SETFA), Alopecurus myosuroides (ALOMY), Echinochloa crus-galli (ECHCG), Avena fatua (AVEFA)). After cultivation for one day (pre-emergence) or after 8 days cultivation (post-emergence) under controlled conditions in a glasshouse (at 24/16° C., day/night; 14 hours light; 65% humidity), the plants are sprayed with an aqueous spray solution derived from the formulation of the technical active ingredient in acetone/water (50:50) solution containing 0.5% Tween 20 (polyoxyethelyene sorbitan monolaurate, CAS RN 9005-64-5). Compounds are applied at 250 g/h. The test plants are then grown in a glasshouse under controlled conditions in a glasshouse (at 24/16° C., day/night; 14 hours light; 65% humidity) and watered twice daily. After 13 days for pre and post-emergence, the test is evaluated for the percentage damage caused to the plant. The biological activities are shown in the following table on a five point scale (5=80-100%; 4=60-79%; 3=40-59%; 2=20-39%; 1=0-19%). NT=not tested.

[2] = system: Avena fatua (AVEFA); experiment: Pre-emergence herbicidal glasshouse test; details: 250 g/Ha, evaluated after 13 days
Method: as §1

[3] = system: Echinochloa crus-galli (ECHCG); experiment: Pre-emergence herbicidal glasshouse test; details: 250 g/Ha, evaluated after 13 days
Method: as §1

[4] = system: Lolium perenne (LOLPE); experiment: Pre-emergence herbicidal glasshouse test; details: 250 g/Ha, evaluated after 13 days
Method: as §1

[5] = system: Setaria faberi (SETFA); experiment: Pre-emergence herbicidal glasshouse test; details: 250 g/Ha, evaluated after 13 days
Method: as §1

[6] = system: Alopecurus myosuroides (ALOMY); experiment: Post-emergence herbicidal glasshouse test; details: 250 g/Ha, evaluated after 13 days
Method: as §1

[7] = system: Avena fatua (AVEFA); experiment: Post-emergence herbicidal glasshouse test; details: 250 g/Ha, evaluated after 13 days
Method: as §1

[8] = system: Echinochloa crus-galli (ECHCG); experiment: Post-emergence herbicidal glasshouse test; details: 250 g/Ha, evaluated after 13 days
Method: as §1

[9] = system: Lolium perenne (LOLPE); experiment: Post-emergence herbicidal glasshouse test; details: 250 g/Ha, evaluated after 13 days
Method: as §1

[10] = system: Setaria faberi (SETFA); experiment: Post-emergence herbicidal glasshouse test; details: 250 g/Ha, evaluated after 13 days
Method: as §1

[11] = system: barley crop plants; experiment: Crop phytotoxicity comparison, post-emergence; details: in vivo
Method: as §1
(§2) Using procedures outlines above, wheat and barley crop plants are treated, post-emergence with compounds A1, A3 or A8 of the present invention or comparator compound C1 (Compound A-38 from WO2014/096289) at the application rates indicated. The compounds were also applied in conjunction with the safener compound cloquintocet-mexyl (CQC) at 50 g/ha.

[12] = system: wheat crop plants; experiment: Crop phytotoxicity comparison, post-emergence; details: in vivo
Method: as §1, §2

CC#Cc1cc(C)c(C2C(=O)CC3(CCN(C(=O)C(C)=NOCC)CC3)CC2=O)c(C)c1 [Compound A2]
percentage damage caused to the plant, five point scale, ALOMY [1]: 5 (5=80-100%)
percentage damage caused to the plant, five point scale, AVEFA [2]: 5 (5=80-100%)
percentage damage caused to the plant, five point scale, ECHCG [3]: 5 (5=80-100%)
percentage damage caused to the plant, five point scale, LOLPE [4]: 5 (5=80-100%)
percentage damage caused to the plant, five point scale, SETFA [5]: 5 (5=80-100%)
percentage damage caused to the plant, five point scale, ALOMY [6]: 5 (5=80-100%)
percentage damage caused to the plant, five point scale, AVEFA [7]: 5 (5=80-100%)
percentage damage caused to the plant, five point scale, ECHCG [8]: 5 (5=80-100%)
percentage damage caused to the plant, five point scale, LOLPE [9]: 5 (5=80-100%)
percentage damage caused to the plant, five point scale, SETFA [10]: 5 (5=80-100%)

CC#Cc1cc(C)c(C2C(=O)CC3(CCN(C(=O)/C=N/OC)CC3)CC2=O)c(C)c1 [Compound A3, 9-(2,6-dimethyl-4-prop-1-ynyl-phenyl)-3-[(2E)-2-methoxyiminoacetyl]-3-azaspiro[5.5]undecane-8,10-dione]
percentage damage caused to the plant, five point scale, ALOMY [1]: 4 (4=60-79%)
percentage damage caused to the plant, five point scale, AVEFA [2]: 5 (5=80-100%)
percentage damage caused to the plant, five point scale, ECHCG [3]: 5 (5=80-100%)
percentage damage caused to the plant, five point scale, LOLPE [4]: 5 (5=80-100%)
percentage damage caused to the plant, five point scale, SETFA [5]: 5 (5=80-100%)
percentage damage caused to the plant, five point scale, ALOMY [6]: 5 (5=80-100%)
percentage damage caused to the plant, five point scale, AVEFA [7]: 5 (5=80-100%)
percentage damage caused to the plant, five point scale, ECHCG [8]: 5 (5=80-100%)
percentage damage caused to the plant, five point scale, LOLPE [9]: 5 (5=80-100%)
percentage damage caused to the plant, five point scale, SETFA [10]: 5 (5=80-100%)
damage to barley crop compared to prior art compound C1 [11]: significantly less damaging
damage to wheat crop compared to prior art compound C1 [12]: significantly less damaging

CC#Cc1cc(C)c(C2C(=O)CC3(CCN(C(=O)C(C)=NOCCOC)CC3)CC2=O)c(C)c1 [Compound A11]
percentage damage caused to the plant, five point scale, ALOMY [1]: 5 (5=80-100%)
percentage damage caused to the plant, five point scale, AVEFA [2]: 3 (3=40-59%)
percentage damage caused to the plant, five point scale, ECHCG [3]: 5 (5=80-100%)
percentage damage caused to the plant, five point scale, LOLPE [4]: 5 (5=80-100%)
percentage damage caused to the plant, five point scale, SETFA [5]: 5 (5=80-100%)
percentage damage caused to the plant, five point scale, ALOMY [6]: 5 (5=80-100%)
percentage damage caused to the plant, five point scale, AVEFA [7]: 5 (5=80-100%)
percentage damage caused to the plant, five point scale, ECHCG [8]: 5 (5=80-100%)
percentage damage caused to the plant, five point scale, LOLPE [9]: 5 (5=80-100%)
percentage damage caused to the plant, five point scale, SETFA [10]: 5 (5=80-100%)

CC#Cc1cc(C)c(C2C(=O)CC3(CCN(C(=O)/C(C)=N/OC4CCOCC4)CC3)CC2=O)c(C)c1 [Compound A9]
percentage damage caused to the plant, five point scale, ALOMY [1]: 5 (5=80-100%)
percentage damage caused to the plant, five point scale, AVEFA [2]: 2 (2=20-39%)
percentage damage caused to the plant, five point scale, ECHCG [3]: 3 (3=40-59%)
percentage damage caused to the plant, five point scale, LOLPE [4]: 3 (3=40-59%)
percentage damage caused to the plant, five point scale, SETFA [5]: 4 (4=60-79%)
percentage damage caused to the plant, five point scale, ALOMY [6]: 5 (5=80-100%)
percentage damage caused to the plant, five point scale, AVEFA [7]: 5 (5=80-100%)
percentage damage caused to the plant, five point scale, ECHCG [8]: 5 (5=80-100%)
percentage damage caused to the plant, five point scale, LOLPE [9]: 4 (4=60-79%)
percentage damage caused to the plant, five point scale, SETFA [10]: 5 (5=80-100%)

CC#Cc1cc(C)c(C2C(=O)CC3(CCN(C(=O)/C(C)=N/O)CC3)CC2=O)c(C)c1 [Compound A4]
percentage damage caused to the plant, five point scale, ALOMY [1]: 5 (5=80-100%)
percentage damage caused to the plant, five point scale, AVEFA [2]: 5 (5=80-100%)
percentage damage caused to the plant, five point scale, ECHCG [3]: 5 (5=80-100%)
percentage damage caused to the plant, five point scale, LOLPE [4]: 5 (5=80-100%)
percentage damage caused to the plant, five point scale, SETFA [5]: 5 (5=80-100%)
percentage damage caused to the plant, five point scale, ALOMY [6]: 5 (5=80-100%)
percentage damage caused to the plant, five point scale, AVEFA [7]: 5 (5=80-100%)
percentage damage caused to the plant, five point scale, ECHCG [8]: 5 (5=80-100%)
percentage damage caused to the plant, five point scale, LOLPE [9]: 5 (5=80-100%)
percentage damage caused to the plant, five point scale, SETFA [10]: 5 (5=80-100%)

CC#Cc1cc(C)c(C2C(=O)CC3(CCN(C(=O)/C(C)=N/Oc4ccccn4)CC3)CC2=O)c(C)c1 [Compound A6, 9-(2,6-dimethyl-4-prop-1-ynyl-phenyl)-3-[(2E)-2-(2-pyridyloxyimino)propanoyl]-3-azaspiro[5.5]undecane-8,10-dione]
percentage damage caused to the plant, five point scale, ALOMY [1]: 5 (5=80-100%)
percentage damage caused to the plant, five point scale, AVEFA [2]: 5 (5=80-100%)
percentage damage caused to the plant, five point scale, ECHCG [3]: 5 (5=80-100%)
percentage damage caused to the plant, five point scale, LOLPE [4]: 5 (5=80-100%)
percentage damage caused to the plant, five point scale, SETFA [5]: 5 (5=80-100%)
percentage damage caused to the plant, five point scale, ALOMY [6]: 5 (5=80-100%)
percentage damage caused to the plant, five point scale, AVEFA [7]: 5 (5=80-100%)
percentage damage caused to the plant, five point scale, ECHCG [8]: 5 (5=80-100%)
percentage damage caused to the plant, five point scale, LOLPE [9]: 5 (5=80-100%)
percentage damage caused to the plant, five point scale, SETFA [10]: 5 (5=80-100%)
